# According to patent US12630512B2, “Agents for differentiating stem cells and treating cancer” (Minerva Biotechnologies Corporation, priority 2017, dated 2026):
# Legend:
# [1] = tested on: human naïve state stem cells; assay: Stem cell drug screen on naïve state stem cells (pluripotency, proliferation, differentiation); format: cell-based; design: key to score for inhibition of naïve stem cell pluripotency and proliferation: 0 being no change in morphology or cell number; 4 being the most profound effect; settings: naïve state stem cells; for inhibition at 6 µM: Homo sapiens, 6 uM final concentration per FIGS. 46-64, read-out: inhibited naïve stem cell pluripotency and proliferation; for score for inhibition of naïve stem cell pluripotency and proliferation: scored by eye 0-4, 6 uM per FIGS. 46-64
# Procedure: The stem cell screening assay, was performed in both the presence and absence of the stem cell growth factors: NME7AB for growing naïve stem cells or FGF for growing primed stem cells. If the cognate growth factor was present, then the biological or small molecule would have to compete away the growth factor to get an effect. Therefore, we expected to see more of an effect when the growth factor, FGF for primed stem cells or NME7AB or NME1 dimers for naïve stem cells, was absent. The effect of the compounds on stem cells was visually determined and compounds were ranked 0-4, with 4 being the greatest effect and 0 being no observable effect. The major effect that was observed was a change from pluripotent stem cell morphology, which is a cobblestone pattern of small round cells with a large nucleus to cytoplasm ratio, to that of differentiating stem cells, which are elongated, large and flattened cells with a smaller nucleus to cytoplasm ratio. […] The compounds were added to a final concentration of 6 uM to either naïve state stem cells or primed state stem cells. In this particular case, the naïve state stem cells were maintained in a naïve state by culturing in a media containing NME7AB or NME1 dimers. However, other methods such as 2i and 5i (Silva et al., 2008, Nichols and Smith, 2009, Theunissen et al., 2014)] can be used to maintain stem cells in a more naïve state. In this case primed state stem cells were cultured in bFGF over a layer of MEFs, although it is known that any bFGF containing media will maintain stem cells in the primed state.
# Percent inhibition of cancer cell migration was performed in a wound healing assay. The percent area that the invading cancer cells occupied, in the presence of a drug candidate compared to the controls, was quantified by Image J cell software which enables cell counting from photographs. IC50's were calculated by performing migration experiments at several compound concentrations and then applying Hill's equation. Inhibition of cancer cell proliferation was quantified by automated cell counting in the presence or absence of a drug candidate. Here, the inhibition of cancer cell proliferation was scored 1 if proliferation was inhibited by 25%, 2 if inhibited by […] and 4 for the highest degree of inhibition of proliferation, and 0 for the lowest. The effect of the drug candidates on stem cell pluripotency or proliferation was scored by eye, based on cell morphology and cell density, with 0 being no change in morphology or cell number and 4 being the most profound effect, with the stem cells taking on the morphology of a differentiating cell, along with much fewer cells indicative of inhibition of proliferation. As an example, FIGS. 30A-30F show photographs of naïve stem cell, primed stem cell and fibroblast controls. FIGS. 31A-31F show the effect of compounds of the invention on naïve state stem cells, where the number of ‘+’ signs indicates the score from 0-4 of ability of compound to inhibit pluripotency, proliferation of naïve stem cells or ability to induce their differentiation. […] FIGS. 36-44 and 65-87 show photographs and IC50 graphs of the compounds of the invention, inhibiting cancer cell migration and invasion. Cancer cell migration is a hallmark of metastatic cancer.
# Stem cells whether embryonic or induced pluripotent stem (iPS) cells were cultured in a minimal, serum-free media that contained human recombinant NME7AB at a concentration of 2-32 nM wherein 4-8 nM is preferred and 4 nM is more preferred. To facilitate surface attachment, cell culture plates were coated with an anti-MUC1* monoclonal antibody called MN-C3 or C3 or MN-C8 at a concentration of 2-100 μg/mL coating solution, wherein 3-50 ug/mL is preferred and 6-12.5 ug/mL is more preferred. In these experiments, 12.5 ug/mL of MN-C3 was used. Antibody coated plates were incubated at 4 degrees C. overnight prior to plating stem cells. A Rho kinase I inhibitor was added to enhance surface attachment. […]
# human fibroblasts = assay: Effect on fibroblasts as surrogate for normal cells; format: cell-based; settings: fibroblasts as surrogate for normal cells; 6 uM
# Excerpt: However, fibroblasts are more differentiated than stem cells but are able to self-replicate for defined periods of time. We tested selected compounds of the invention to determine if these compounds were just cytotoxic or if they selectively affected stem cells and, importantly, cancer cells, but not normal, healthy cells. Here, we used fibroblasts as a surrogate for normal cells. […] […] Each compound was scored for its effect on fibroblast proliferation where “+” indicates 25% inhibition of fibroblast growth, “++” 50% inhibition and “+++” 75% inhibition of growth.
# micro-RNA-145 = assay: RT-PCR measurement of miR-145 in T47D cancer cells; format: cell-based, human; settings: treated for 72 hours (FIG. 92A-92C)
# Procedure: FIGS. 92A-92C show graphs of RT-PCR measurement of T47D cancer cells treated for 72 hours with compounds of the invention at the indicated concentrations, wherein the gene that is measured is micro-RNA-145, which is a harbinger of stem cell differentiation
# We used RT-PCR to measure changes in the expression of some of these super-enhancer genes, AXIN2, which is a surrogate for activated β-catenin, miR-145, MUC1 and MUC1* ligands NME7AB and NME7-X1. […] Thus, compounds of the invention, at least in part, inhibit tumor cell migration and invasiveness by inducing expression of genes that are critical for differentiation, some of which are super-enhancer target genes, and miR-145, while decreasing expression of β-catenin, MUC1 and its growth factor NME7AB. Novel compounds of the invention are powerful agents for the treatment or prevention of cancers and metastatic cancers. […] In one aspect of the invention, a biological sample from a patient is tested for the presence of MUC1*, NME7AB or NME7-X1, and upon finding that the patient's cancer is positive for MUC1*, NME7AB or NME7-X1, a compound of the invention is administered to the patient in an amount suitable to prevent or treat the cancer. In one instance, the patient sample is subjected to a test, such as PCR, to determine the amount of nucleic acid that encodes MUC1, NME7 or NME7-X1. […] In another aspect of the invention, the patient's cancer is considered to be MUC1* positive, NME7AB positive or NME7-X1 positive if expression of those genes is equal to or greater than 0.5% of EEF1A1 expression in those cells. In yet another aspect of the invention, the patient's cancer is considered to be MUC1* positive if the patient's tissue specimen is contacted with an antibody that binds to the PSMGFR peptide or the N-10 peptide and stains the tissue with a pathologist's standard score 1-4 (“+−++++”). […]
Structure (SMILES),inhibition at 6 µM [1],score for inhibition of naïve stem cell pluripotency and proliferation [1],effect on fibroblast cells (human fibroblasts),expression of miR-145 in T47D cancer cells (micro-RNA-145)
CN(C[C@H]1CC[C@H](C(=O)N2CCc3c([nH]c4ccccc34)C2C2CC2)CC1)C(=O)NC(C)(C)C (stereo partly drawn) [MN1413],100%,4,no effect,increased expression of miR-145 in cancer cells
C[C@@H]1Cc2c([nH]c3ccccc23)CN1C(=O)C1CCC(CN(C)C(=O)NC(C)(C)C)CC1 (stereo partly drawn) [MN1423],100%,4,no effect,increased expression of miR-145 in cancer cells
"CN(CC1CCC(C(=O)N2CCC(c3ccncc3)CC2)CC1)C(=O)OC(C)(C)C (stereo not drawn) [MN1428, Tert-butyl methyl((4-(4-(pyridin-4-yl)piperidine-1-carbonyl)cyclohexyl)methyl)carbamate]",100%,4,no effect,increased expression of miR-145 in cancer cells
